Results from patent publication US9034851B2, “Substituted pyrimidines” (MERCK SHARP & DOHME CORP., priority 2011, dated 2015).

The compounds below were run against T1, HIF PHD2 (Homo sapiens, UniProt Q9GZT9) (assay: PHD2 inhibition assay (time resolved fluorescence, HIF-1α peptide hydroxylation / VHL detection)). Settings: FLAG-tagged full length PHD2; 0.2 μM 2-oxoglutarate, 0.5 μM HIF-1α peptide.
T1 construct: FLAG-tagged full length PHD2; FLAG; made in house; host or cells: baculovirus-infected Sf9 cells
T1 sequence (Q9GZT9 whole entry): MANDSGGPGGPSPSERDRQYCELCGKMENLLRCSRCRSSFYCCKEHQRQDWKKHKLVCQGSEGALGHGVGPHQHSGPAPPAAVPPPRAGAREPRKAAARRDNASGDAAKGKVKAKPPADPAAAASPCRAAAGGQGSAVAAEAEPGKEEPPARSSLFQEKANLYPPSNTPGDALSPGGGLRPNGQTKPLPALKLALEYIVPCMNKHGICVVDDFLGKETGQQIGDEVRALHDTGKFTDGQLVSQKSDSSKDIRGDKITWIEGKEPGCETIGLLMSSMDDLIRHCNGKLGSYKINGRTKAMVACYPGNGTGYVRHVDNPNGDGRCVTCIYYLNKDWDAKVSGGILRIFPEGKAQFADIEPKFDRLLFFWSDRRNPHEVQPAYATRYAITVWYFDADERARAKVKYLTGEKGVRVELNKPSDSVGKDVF
Type: biochemical
Protocol: To each well of a 96-well plate was added 1 μL of test compound in DMSO and 20 μl of assay buffer (50 mM Tris pH 7.4/0.01% Tween-20/0.1 mg/ml bovine serum albumin/10 μM ferrous sulfate/1 mM sodium ascorbate/20 μg/ml catalase) containing 0.15 μg/ml FLAG-tagged full length PHD2 expressed in and purified from baculovirus-infected Sf9 cells. After a 30 min preincubation at room temperature, the enzymatic reactions were initiated by the addition of 4 μL of substrates (final concentrations of 0.2 μM 2-oxoglutarate and 0.5 μM HIF-1α peptide biotinyl-DLDLEMLAPYIPMDDDFQL (SEQ ID NO:1)). After 2 hours at room temperature, the reactions were terminated and signals were developed by the addition of a 25 μL quench/detection mix to a final concentration of 1 mM ortho-phenanthroline, 0.1 mM EDTA, 0.5 nM anti-(His)6 LANCE reagent (Perkin-Elmer Life Sciences), 100 nM AF647-labeled streptavidin (Invitrogen), and 2 μg/ml (His)6-VHL complex (S. Tan (2001) Protein Expr. Purif. 21, 224-234). The ratio of time resolved fluorescence signals at 665 and 620 nm was determined; and percent inhibition was calculated relative to an uninhibited control sample run in parallel.

SMILES	IC50
O=C(NCCS(=O)(=O)O)c1ncc(C(=O)NC(c2ccccc2)c2ccccc2)c(O)n1 [Compound 2-4, 2-[({5-[(diphenylmethyl)carbamoyl]-4-hydroxypyrimidin-2-yl}carbonyl)amino]ethanesulfonic acid]	0.5 to 20 nM
CP(=O)(O)CNC(=O)c1ncc(C(=O)NC(c2ccccc2)c2ccccc2)c(O)n1 [Compound 2-14, {[({5-[(diphenylmethyl)carbamoyl]-4-hydroxypyrimidin-2-yl}carbonyl)amino]methyl}methylphosphinicacid]	0.5 to 20 nM
CCOC(=O)CCNC(=O)c1ncc(C(=O)NC(c2ccccc2)c2ccccc2)c(O)n1 [Compound 2-1, Ethyl N-({5-[(diphenylmethyl)carbamoyl]-4-hydroxypyrimidin-2-yl}carbonyl)-β-alaninate]	0.5 to 20 nM
CCOC(=O)CNC(=O)c1ncc(C(=O)NCc2cccc3ccccc23)c(O)n1 [Compound 2-20, Ethyl-2-(4-hydroxy-5-(naphthalen-1-ylmethylcarbamoyl)pyrimidine-2-carboxamido)acetate]	100 to 10000 nM
O=C(O)CNC(=O)c1ncc(C(=O)NCc2ccc3ccccc3c2)c(O)n1 [Compound 2-22, N-({4-hydroxy-5-[(naphthalen-2-ylmethyl)carbamoyl]pyrimidin-2-yl}carbonyl)glycine]	20 to 100 nM
CCOC(=O)CNC(=O)c1ncc(C(=O)NC(c2ccc(F)cc2)c2ccc(F)cc2)c(O)n1 [Compound 2-18, Ethyl 2-(5-(bis(4-fluorophenyl)methylcarbamoyl)-4-hydroxypyrimidine-2-carboxamido)acetate]	0.5 to 20 nM
O=C(O)CNC(=O)c1ncc(C(=O)NC(c2ccccc2)c2ccccc2)c(O)n1 [Compound 2-12, 2-(5-(benzhydrylcarbamoyl)-4-hydroxypyrimidine-2-carboxamido)acetic acid]	0.5 to 20 nM
COC(=O)CNC(=O)c1ncc(C(=O)NC(c2ccccc2)c2ccccc2)c(O)n1 [Compound 2-3, Methyl N-({5-[(diphenylmethyl)carbamoyl]-4-hydroxypyrimidin-2-yl}carbonyl)glycinate]	0.5 to 20 nM
CCOP(=O)(CNC(=O)c1ncc(C(=O)NC(c2ccccc2)c2ccccc2)c(O)n1)OCC [Compound 2-5, Diethyl {[({5-[(diphenylmethyl)carbamoyl]-4-hydroxypyrimidin-2-yl}carbonyl)amino]methyl}phosphonate]	20 to 100 nM
COc1ccc(C(NC(=O)c2cnc(C(=O)NCC(=O)O)nc2O)c2ccc(OC)cc2)cc1 [Compound 2-17, 2-(5-(bis(4-methoxyphenyl)methylcarbamoyl)-4-hydroxypyrimidine-2-carboxamido)acetic acid]	0.5 to 20 nM
O=C(O)CNC(=O)c1ncc(C(=O)NC(c2ccc(F)cc2)c2ccc(F)cc2)c(O)n1 [Compound 2-19, 2-(5-(bis(4-fluorophenyl)methylcarbamoyl)-4-hydroxypyrimidine-2-carboxamido) acetic acid]	0.5 to 20 nM
O=C(CNC(=O)c1ncc(C(=O)NC(c2ccccc2)c2ccccc2)c(O)n1)OCc1ccccc1 [Compound 2-7, Benzyl N-({5-[(diphenylmethyl)carbamoyl]-4-hydroxypyrimidin-2-yl}carbonyl)glycinate]	0.5 to 20 nM
O=C(O)CNC(=O)c1ncc(NC(=O)C(c2ccccc2)c2ccccc2)c(O)n1 [Compound 3-1, 2-(5-(2,2-Diphenylacetamido)-4-hydroxypyrimidine-2-carboxamido)acetic acid]	0.5 to 20 nM
O=C(O)CCNC(=O)c1ncc(C(=O)NC(c2ccccc2)c2ccccc2)c(O)n1 [Compound 2-11, 3-(5-(benzhydrylcarbamoyl)-4-hydroxypyrimidine-2-carboxamido)propanoic acid]	0.5 to 20 nM
CCOC(=O)CNC(=O)c1ncc(C(=O)NC(c2ccccc2)c2ccccc2)c(O)n1 [Compound 2-2, Ethyl N-({5-[(diphenylmethyl)carbamoyl]-4-hydroxypyrimidin-2-yl}carbonyl)glycinate]	0.5 to 20 nM
O=C(NCP(=O)(O)O)c1ncc(C(=O)NC(c2ccccc2)c2ccccc2)c(O)n1 [Compound 2-13, {[({5-[(diphenylmethyl)carbamoyl]-4-hydroxypyrimidin-2-yl}carbonyl)amino]methyl}phosphonicacid]	20 to 100 nM
O=C(O)CNC(=O)c1ncc(C(=O)NCc2cccc3ccccc23)c(O)n1 [Compound 2-21, 2-(4-hydroxy-5-(naphthalen-1-ylmethylcarbamoyl)pyrimidine-2-carboxamido)acetic acid]	20 to 100 nM
CP(=O)(O)c1cnn(-c2ncc(C(=O)NC(c3ccccc3)c3ccccc3)c(O)n2)c1 [Compound 1-1, 1-(5-(benzhydrylcarbamoyl)-4-hydroxypyrimidin-2-yl)-1H-pyrazol-4-yl(methyl)phosphinic acid]	0.5 to 20 nM
CCOP(C)(=O)CNC(=O)c1ncc(C(=O)NC(c2ccccc2)c2ccccc2)c(O)n1 (stereo not shown) [Compound 2-6, Ethyl {[({5-[(diphenylmethyl)carbamoyl]-4-hydroxypyrimidin-2-yl}carbonyl)amino]methyl}methylphosphinate]	0.5 to 20 nM
